# Results reported in patent publication US10392383B2, “3-(1H-benzo[d]imidazol-2-yl)-1H-pyrazolo[4,3-b]pyridines and therapeutic uses thereof” (Samumed, LLC, priority 2015, dated 2019).
# How the values were obtained:
# [1] = tested on: SW480 colon cancer cells; assay: Cell viability assay (CellTiter-Blue) in SW480 cells; assay type: cell-based; details: Homo sapiens, 96 h, four days, CellTiter-Blue, 10 μM to 0.0045 μM
# Method in brief: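 SW480 cells (~2×10^3 per well) were exposed to compound for four days at 37 °C/5% CO2, using 8-point 1:3 dilutions from 10 μM to 0.0045 μM in duplicate. Viability was read by resazurin reduction (CellTiter-Blue, ~3 h, Ex 560/Em 590 nm). EC50 came from non-linear regression; above 10 μM, percent inhibition at 10 μM is given.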
# [2] = tested on: primary human fibroblasts derived from IPF patients (LL29 cells) treated with TGF-β1; assay: Inhibition of the fibrotic process: αSMA staining in TGF-β1-treated LL29 fibroblasts; assay type: cell-based; details: Fibroblast; for inhibition at 10 µM: LL29 fibroblasts treated with TGF-β1, Table 4, read-out: percent inhibition at 10 μM (given in parentheses for EC50 >10 μM); for EC50: 96 h, LL29 fibroblasts treated with TGF-β1 (20 ng/mL), 4 days, Table 4
# Method in brief: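 IPF-derived LL29 fibroblasts in F12 with 1% FBS dosed with compound (11-point, 10 μM to 1.87 nM, 0.1% DMSO), then 20 ng/mL TGF-β1 after 1 h, and cultured 4 days at 37 °C. αSMA-positive cell fraction imaged after excluding SYTOX-positive cells, normalized to TGF-β1/DMSO wells; EC50 by non-linear regression, % inhibition at 10 μM if EC50 >10 μM.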
EC50 [1],Compound,inhibition at 10 µM [2],EC50 [2]
3500 nM,"Cc1cn(-c2cccc3[nH]c(-c4n[nH]c5ccc(-c6cncc(NC(=O)C7CCC7)c6)nc45)nc23)cn1 [Compound 217, N-(5-(3-(4-(4-Methyl-1H-imidazol-1-yl)-1H-benzo[d]imidazol-2-yl)-1H-pyrazolo[4,3-b]pyridin-5-yl)pyridin-3-yl)cyclobutanecarboxamide]",0%,> 10000 nM
933 nM,"CN1CCN(c2cccc3[nH]c(-c4n[nH]c5ccc(-c6cncc(OC7CCCCC7)c6)nc45)nc23)CC1 [Compound 639, 5-(5-(Cyclohexyloxy)pyridin-3-yl)-3-(4-(4-methylpiperazin-1-yl)-1H-benzo [d]imidazol-2-yl)-1H-pyrazolo[4,3-b]pyridine]",–,1360 nM
5590 nM,"Cc1ccncc1-c1ccc2[nH]nc(-c3nc4c(-c5cc(F)cc(CNS(C)(=O)=O)c5)cccc4[nH]3)c2n1 [Compound 481, N-(3-Fluoro-5-(2-(5-(4-methylpyridin-3-yl)-1H-pyrazolo[4,3-b]pyridin-3-yl)-1H-benzo[d]imidazol-4-yl)benzyl)methanesulfonamide]",–,2110 nM
8360 nM,"CN1CCN(c2cccc3[nH]c(-c4n[nH]c5ccc(-c6cncc(NC(=O)C7CCCC7)c6)nc45)nc23)CC1 [Compound 246, N-(5-(3-(4-(4-Methylpiperazin-1-yl)-1H-benzo[d]imidazol-2-yl)-1H-pyrazolo [4,3-b]pyridin-5-yl)pyridin-3-yl)cyclopentanecarboxamide]",–,4940 nM
2360 nM,"CN(C)c1cncc(-c2ccc3[nH]nc(-c4nc5c(-c6cccs6)cccc5[nH]4)c3n2)c1 [Compound 343, N,N-Dimethyl-5-(3-(4-(thiophen-2-yl)-1H-benzo[d]imidazol-2-yl)-1H-pyrazolo[4,3-b]pyridin-5-yl)pyridin-3-amine]",–,1180 nM
8470 nM,"Cc1cn(-c2cccc3[nH]c(-c4n[nH]c5ccc(-c6cncc(CN7CCCC7)c6)nc45)nc23)cn1 [Compound 210, 3-(4-(4-Methyl-1H-imidazol-1-yl)-1H-benzo[d]imidazol-2-yl)-5-(5-(pyrrolidin-1-ylmethyl)pyridin-3-yl)-1H-pyrazolo[4,3-b]pyridine]",30.4%,> 10000 nM
1160 nM,"COc1cncc(-c2ccc3[nH]nc(-c4nc5c(-c6cccc(F)c6)cccc5[nH]4)c3n2)c1 [Compound 516, 3-(4-(3-Fluorophenyl)-1H-benzo[d]imidazol-2-yl)-5-(5-methoxypyridin-3-yl)-1H-pyrazolo[4,3-b]pyridine]",0%,> 10000 nM
1100 nM,"CCCCC(=O)Nc1cncc(-c2ccc3[nH]nc(-c4nc5c(-c6cc(F)cc(NCCN(C)C)c6)cccc5[nH]4)c3n2)c1 [Compound 467, N-(5-(3-(4-(3-((2-(Dimethylamino)ethyl)amino)-5-fluorophenyl)-1H-benzo [d]imidazol-2-yl)-1H-pyrazolo[4,3-b]pyridin-5-yl)pyridin-3-yl)pentanamide]",–,1180 nM
6950 nM,"CC(C)(C)CC(=O)Nc1cncc(-c2ccc3[nH]nc(-c4nc5ccccc5[nH]4)c3n2)c1 [Compound 268, N-(5-(3-(1H-Benzo[d]imidazol-2-yl)-1H-pyrazolo[4,3-b]pyridin-5-yl)pyridin-3-yl)-3,3-dimethylbutanamide]",–,2380 nM
1380 nM,"CN(C)CCOc1cncc(-c2ccc3[nH]nc(-c4nc5c(-c6cccc(F)c6)cccc5[nH]4)c3n2)c1 [Compound 515, 2-((5-(3-(4-(3-Fluorophenyl)-1H-benzo[d]imidazol-2-yl)-1H-pyrazolo[4,3-b]pyridin-5-yl)pyridin-3-yl)oxy)-N,N-dimethylethan-1-amine]",–,2540 nM
2890 nM,"CN(C)Cc1cncc(-c2ccc3[nH]nc(-c4nc5c(-c6cccs6)cccc5[nH]4)c3n2)c1 [Compound 349, N,N-dimethyl-1-(5-(3-(4-(thiophen-2-yl)-1H-benzo[d]imidazol-2-yl)-1H-pyrazolo[4,3-b]pyridin-5-yl)pyridin-3-yl)methanamine]",–,2500 nM
414 nM,"Cc1ncc(-c2ccc3[nH]nc(-c4nc5c(-c6cccc(F)c6)cccc5[nH]4)c3n2)n1C [Compound 509, 5-(1,2-Dimethyl-1H-imidazol-5-yl)-3-(4-(3-fluorophenyl)-1H-benzo[d]imidazol-2-yl)-1H-pyrazolo[4,3-b]pyridine]",–,175 nM
508 nM,"CC(C)Nc1cncc(-c2ccc3[nH]nc(-c4nc5c(-c6cc(F)cc(NCCN(C)C)c6)cccc5[nH]4)c3n2)c1 [Compound 460, N^1-(3-Fluoro-5-(2-(5-(5-(isopropylamino)pyridin-3-yl)-1H-pyrazolo[4,3-b]pyridin-3-yl)-1H-benzo[d]imidazol-4-yl)phenyl)-N^2,N^2-dimethylethane-1,2-diamine]",–,1440 nM
2780 nM,"CN(C)c1cncc(-c2ccc3[nH]nc(-c4nc5c(-c6cccc(F)c6)cccc5[nH]4)c3n2)c1 [Compound 7, 5-(3-(4-(3-fluorophenyl)-1H-benzo[d]imidazol-2-yl)-1H-pyrazolo[4,3-b]pyridin-5-yl)-N,N-dimethylpyridin-3-amine]",–,1440 nM
3750 nM,"O=C(Nc1cncc(-c2ccc3[nH]nc(-c4nc5c(-c6cccs6)cccc5[nH]4)c3n2)c1)C1CC1 [Compound 356, N-(5-(3-(4-(Thiophen-2-yl)-1H-benzo[d]imidazol-2-yl)-1H-pyrazolo[4,3-b]pyridin-5-yl)pyridin-3-yl)cyclopropanecarboxamide]",0%,> 10000 nM
593 nM,"O=C(Nc1cncc(-c2ccc3[nH]nc(-c4nc5ccccc5[nH]4)c3n2)c1)C1CCCCC1 [Compound 275, N-(5-(3-(1H-Benzo[d]imidazol-2-yl)-1H-pyrazolo[4,3-b]pyridin-5-yl)pyridin-3-yl) cyclohexanecarboxamide]",–,80.8 nM
2280 nM,"Fc1cccc(-c2cccc3[nH]c(-c4n[nH]c5ccc(-c6cncc(OC7CCNCC7)c6)nc45)nc23)c1 [Compound 512, 3-(4-(3-Fluorophenyl)-1H-benzo[d]imidazol-2-yl)-5-(5-(piperidin-4-yloxy)pyridin-3-yl)-1H-pyrazolo[4,3-b]pyridine]",–,1540 nM
1890 nM,"c1ccc(-c2ccc3[nH]nc(-c4nc5ccccc5[nH]4)c3n2)nc1 [Compound 280, 3-(1H-Benzo[d]imidazol-2-yl)-5-(pyridin-2-yl)-1H-pyrazolo[4,3-b]pyridine]",–,4740 nM
584 nM,"CCNCc1cncc(-c2ccc3[nH]nc(-c4nc5c(-c6ccoc6)cccc5[nH]4)c3n2)c1 [Compound 314, N-((5-(3-(4-(Furan-3-yl)-1H-benzo[d]imidazol-2-yl)-1H-pyrazolo[4,3-b]pyridin-5-yl)pyridin-3-yl)methyl)ethanamine]",0%,> 10000 nM
1120 nM,"Cn1cc(-c2ccc3[nH]nc(-c4nc5c(-c6cccc(F)c6)cccc5[nH]4)c3n2)cn1 [Compound 508, 3-(4-(3-Fluorophenyl)-1H-benzo[d]imidazol-2-yl)-5-(1-methyl-1H-pyrazol-4-yl)-1H-pyrazolo[4,3-b]pyridine]",–,1110 nM
